{
  "source": "patent US10401295B2",
  "about": "“Composition and method for monitoring lipid” (Memorial Sloan-Kettering Cancer Center, priority 2014, dated 2019)",
  "key": {"[1]": {"test_system": "NPC fibroblasts (homozygous mutation of the NPC1 gene)", "experiment": "CNOR emission in homozygous NPC patient fibroblasts", "format": "cell-based, human", "protocol": "(§1) Cell Lines and Cell Culture Procedures: HeLa CCL-2 cells (ATCC, Manassas, Va., US) were grown under standard incubation conditions at 37° C. and 5% CO2 in sterile-filtered DMEM with 10% heat-inactivated FBS, 2.5% HEPES, 1% Glutamine, and 1% Penicillin/Streptomycin (all Gibco). For studies performed with homozygous mutant NPC, compound mutant heterozygote NPC, or wild-type fibroblasts, the cell lines GM18453, GM03123 or GM05659 (Coriell, Camden, N.J., US), respectively, were cultured in MEM with 10% FBS, 2.5% HEPES, and 1% Glutamine. Cells were plated on glass-bottom petri dishes, or lysine-covered glass dishes (MatTek) for fibroblasts. Unpurified SWCNT were incubated at 1 mg/L and separated SWCNT were incubated at 0.25 mg/L in media with cells for 30 minutes at 37° C. Depending on the experiment, cells were imaged immediately, or trypsinized (Gibco) and re-plated on a fresh glass-bottom petri dish followed by hyperspectral imaging.\nPharmacological treatments on HeLa cells were performed with Nocodazole (Sigma, 10 μg/mL added after SWCNT incubation) or U18666A (Sigma, 3 μg/mL added 6 hours prior to SWCNT incubation). […]\nNiemann Pick Type-C(NPC) is a lysosomal storage disorder characterized by massive accumulation of unesterified cholesterol in the lysosomes of patient fibroblasts. […]"}, "[2]": {"test_system": "NPC1 fibroblasts (compound heterozygous mutations of the NPC1 gene)", "experiment": "reporter emission in compound heterozygous NPC1 patient fibroblasts", "format": "cell-based, human", "protocol": "as §1\nIn a similar procedure to the experiment with homozygous NPC cells, fibroblasts with the compound heterozygous mutation of the NPC1 gene were plated on a poly-d-lysine-coated glass-bottomed petri-dish and imaged at different time points after an initial 30 minute incubation with the SWCNTs. Histograms of the wavelength distribution profile of the SWCNTs were obtained. […]"}, "HeLa cells [3]": {"test_system": "HeLa cells", "experiment": "hyperspectral imaging of CNOR emission in live HeLa cells", "format": "cell-based", "conditions": "for effect on blue-shifting of CNOR emission: HeLa cells, relative to control", "protocol": "Cell Lines and Cell Culture Procedures: HeLa CCL-2 cells (ATCC, Manassas, Va., US) were grown under standard incubation conditions at 37° C. and 5% CO2 in sterile-filtered DMEM with 10% heat-inactivated FBS, 2.5% HEPES, 1% Glutamine, and 1% Penicillin/Streptomycin (all Gibco). For studies performed with homozygous mutant NPC, compound mutant heterozygote NPC, or wild-type fibroblasts, the cell lines GM18453, GM03123 or GM05659 (Coriell, Camden, N.J., US), respectively, were cultured in MEM with 10% FBS, 2.5% HEPES, and 1% Glutamine. Cells were plated on glass-bottom petri dishes, or lysine-covered glass dishes (MatTek) for fibroblasts. Unpurified SWCNT were incubated at 1 mg/L and separated SWCNT were incubated at 0.25 mg/L in media with cells for 30 minutes at 37° C. Depending on the experiment, cells were imaged immediately, or trypsinized (Gibco) and re-plated on a fresh glass-bottom petri dish followed by hyperspectral imaging. Pharmacological treatments on HeLa cells were performed with Nocodazole (Sigma, 10 μg/mL added after SWCNT incubation) or U18666A (Sigma, 3 μg/mL added 6 hours prior to SWCNT incubation). Fibroblast cells were incubated with hydroxypropyl-β-cyclodextrin (Sigma, 100 μM) 6 hours prior to SWCNT incubation. Cells were incubated for 30 minutes with 0.25 mg/L of the SWCNTs before rinsing and replacing with fresh media. Hyperspectral imaging was conducted immediately afterwards and 24 hours later. A DNA-encapsulated nanotube complex, undergoing a continuous solvatochromic shifting response, spatially and temporally tracked endosomal maturation in live HeLa cells. Separated (8,6) nanotubes encapsulated by an ss(GT)6 oligonucleotide, with a median length of 236 nm, were incubated with HeLa cells at 0.25 mg/L for 30 minutes before rinsing and replacing with fresh media. The wavelength distribution of the nanotube complex in endosomes, measured immediately after uptake, was centered at 1200.7±0.4 nm, near the bulk value observed in water. In lysosomes, after 6 hours post-incubation, the wavelength distribution broadened before blue-shifting to 1194.3±0.7 nm at the 24-hour timepoint (FIG. 2, panel A). A small red-shifted nanotube population, with a mean wavelength of 1205 nm, appeared at the 6-hour time point but disappeared by 24 hours. The relative mean wavelength of each emissive region of interest (ROI) was laid over a transmitted light image of the cells, resulting in spatial visualization of the spectral distribution (FIG. 2, panel B). […] The interaction of GT6-(8,6) nanotubes with RAW 264.7 macrophages was characterized, by incubating 2 pM of nanotubes in cell media for 30 minutes at 37° C. Under these conditions, the majority of cells efficiently took up nanotubes via energy-dependent mechanisms."}, "RAW 264.7 macrophages": {"test_system": "RAW 264.7 macrophages", "experiment": "CNOR emission in RAW 264.7 macrophages (lysosomal lipid accumulation)", "format": "cell-based", "conditions": "for blue shift compared with control macrophages: DMEM+10% FBS, U18666A, 10 uM Lalistat", "protocol": "A DNA-encapsulated nanotube complex, undergoing a continuous solvatochromic shifting response, spatially and temporally tracked endosomal maturation in live HeLa cells. Separated (8,6) nanotubes encapsulated by an ss(GT)6 oligonucleotide, with a median length of 236 nm, were incubated with HeLa cells at 0.25 mg/L for 30 minutes before rinsing and replacing with fresh media. The wavelength distribution of the nanotube complex in endosomes, measured immediately after uptake, was centered at 1200.7±0.4 nm, near the bulk value observed in water. In lysosomes, after 6 hours post-incubation, the wavelength distribution broadened before blue-shifting to 1194.3±0.7 nm at the 24-hour timepoint (FIG. 2, panel A). A small red-shifted nanotube population, with a mean wavelength of 1205 nm, appeared at the 6-hour time point but disappeared by 24 hours. The relative mean wavelength of each emissive region of interest (ROI) was laid over a transmitted light image of the cells, resulting in spatial visualization of the spectral distribution (FIG. 2, panel B). […] The interaction of GT6-(8,6) nanotubes with RAW 264.7 macrophages was characterized, by incubating 2 pM of nanotubes in cell media for 30 minutes at 37° C. Under these conditions, the majority of cells efficiently took up nanotubes via energy-dependent mechanisms.\nRAW macrophages were incubated in lipoprotein depleted serum (LPDS) for 24 hours. Incubation in these conditions reduces the lipid content of the lysosomes and increases the number of surface receptors for acetylated LDL (Ac-LDL) on the cell surface. To induce lipid accumulation in the lysosomes, Ac-LDL and U18666A (a cholesterol transport inhibitor) were introduced to cells incubating in the lipoprotein depleted serum. […]\nThe reporter detected Wolman's disease, a lysosomal storage disorder characterized by the accumulation of esterified cholesterol in the lysosomes due to a non-functioning lysosomal acid lipase (LAL). […]"}, "HeLa cells [4]": {"test_system": "HeLa cells", "experiment": "filipin staining of unesterified cholesterol in HeLa cells", "format": "cell-based", "conditions": "fixed HeLa cells, versus control", "experimental": "Filipin staining was conducted by fixing cells with 1.5% paraformaldehyde in PBS for 20 minutes. Cells were then labeled with 50 μg/mL filipin for 45 minutes. After washing, filipin images were acquired using 350/50 nm excitation and 460/50 mm emission filters with a 400 nm dichroic long-pass filter (Olympus)."}},
  "data": [
    {"compound": "hydroxypropyl-β-cyclodextrin [HPβCD]", "values": [
      {"measurement": "effect on CNOR blue-shift in NPC cells", "setting": "[1]; HPβCD for additional 24 hours, after imaging at 24 hours", "value": "reversal of the CNOR blue-shift"},
      {"measurement": "effect of pre-treatment on CNOR fluorescence shifting in diseased cells", "setting": "[1]; pre-treatment before CNOR incubation", "value": "prevented CNOR fluorescence from shifting"},
      {"measurement": "red-shift of nanotube emission", "setting": "[2]; 100 uM for 24 hours, 24 hours after nanotube addition", "value": "approximately 4 nm"},
      {"measurement": "emission in pretreated NPC1 cells versus WT fibroblasts", "setting": "[2]; pre-treated 24 hours prior to nanotube addition", "value": "identical emission values"}
    ]},
    {"compound": "COC(=O)Nc1nc2ccc(C(=O)c3cccs3)cc2[nH]1", "note": "[nocodazole]", "values": [
      {"measurement": "effect on blue-shifting of CNOR emission", "setting": "HeLa cells [3]", "value": "prevented the blue-shifting"},
      {"measurement": "mean CNOR emission", "setting": "HeLa cells [3]; nocodazole 10 μg/mL, up to 24 hours after internalization, control 1194.28±0.73", "value": "1200.07±1.4", "unit": "nm"}
    ]},
    {"compound": "Lalistat", "values": [
      {"measurement": "blue shift compared with control macrophages", "setting": "RAW 264.7 macrophages", "value": "~8", "unit": "nm"}
    ]},
    {"compound": "CCN(CC)CCO[C@H]1CC[C@@]2(C)C(=CC[C@@H]3[C@@H]2CC[C@]2(C)C(=O)CC[C@@H]32)C1", "note": "[U18666A]", "values": [
      {"measurement": "blue shift compared with control macrophages", "setting": "RAW 264.7 macrophages", "value": "~8", "unit": "nm"},
      {"measurement": "CNOR blue-shift in drug-treated cells relative to drug-free control", "setting": "RAW 264.7 macrophages; RAW 264.7 macrophages", "value": "11.1±1.1", "unit": "nm"},
      {"measurement": "intensity of filipin in the cell interior", "setting": "HeLa cells [4]", "value": "increased greatly"},
      {"measurement": "further increase in blue shift than in untreated control cells", "setting": "HeLa cells [3]; 3 μg/mL for six hours before incubation with the CNOR, at 24 hours", "value": "3.8±0.7", "unit": "nm"},
      {"measurement": "effect on blue-shifting of CNOR emission", "setting": "HeLa cells [3]", "value": "enhanced"}
    ]},
    {"compound": "Cl.N", "note": "[NH4Cl]", "values": [
      {"measurement": "effect on CNOR emission populations", "setting": "HeLa cells [3]; 50 mM added 6 hours after incubation with the CNOR", "value": "blue-shifted population remained unaffected while the red-shifted population was depleted"}
    ]}
  ]
}
